Tested on: SEM cells
Assay: cell viability relative to DMSO control; higher = less cytotoxic
Details: 48 h
Procedure, shortened: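 Viability, reported as a per-plate percentage of DMSO wells with cell-free wells as background, came from CellTiter-Glo One luminescence. Reading took place after 48 h at 37°C. Before that, NOMO1 or SEM (500 cells/well) or P12-Ichikawa (1000 cells/well) leukemia cells, adapted for at least four passages in each medium, were seeded in 1536-well plates (5 μl) and pin-dosed with library compounds in DMSO, 47 μM to 0.79 nM over 11 threefold points.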

[1] = HPLM + 10% dialyzed FBS, 0.000781 µM
[2] = HPLM + 10% dialyzed FBS, 0.00234 µM
[3] = HPLM + 10% dialyzed FBS, 0.00702 µM
[4] = HPLM + 10% dialyzed FBS, 0.0211 µM
[5] = HPLM + 10% dialyzed FBS, 0.0632 µM
[6] = HPLM + 10% dialyzed FBS, 0.19 µM
[7] = HPLM + 10% dialyzed FBS, 0.569 µM
[8] = HPLM + 10% dialyzed FBS, 1.71 µM
[9] = HPLM + 10% dialyzed FBS, 5.12 µM
[10] = HPLM + 10% dialyzed FBS, 15.4 µM
[11] = HPLM + 10% dialyzed FBS, 46.1 µM
[12] = RPMI 5 mM glucose + 10% FBS, 0.000781 µM
[13] = RPMI 5 mM glucose + 10% FBS, 0.00234 µM
[14] = RPMI 5 mM glucose + 10% FBS, 0.00702 µM
[15] = RPMI 5 mM glucose + 10% FBS, 0.0211 µM
[16] = RPMI 5 mM glucose + 10% FBS, 0.0632 µM
[17] = RPMI 5 mM glucose + 10% FBS, 0.19 µM
[18] = RPMI 5 mM glucose + 10% FBS, 0.569 µM
[19] = RPMI 5 mM glucose + 10% FBS, 1.71 µM
[20] = RPMI 5 mM glucose + 10% FBS, 5.12 µM
[21] = RPMI 5 mM glucose + 10% FBS, 15.4 µM
[22] = RPMI 5 mM glucose + 10% FBS, 46.1 µM
[23] = RPMI 5 mM glucose + 10% dialyzed FBS, 0.000781 µM
[24] = RPMI 5 mM glucose + 10% dialyzed FBS, 0.00234 µM
[25] = RPMI 5 mM glucose + 10% dialyzed FBS, 0.00702 µM
[26] = RPMI 5 mM glucose + 10% dialyzed FBS, 0.0211 µM
[27] = RPMI 5 mM glucose + 10% dialyzed FBS, 0.0632 µM
[28] = RPMI 5 mM glucose + 10% dialyzed FBS, 0.19 µM
[29] = RPMI 5 mM glucose + 10% dialyzed FBS, 0.569 µM
[30] = RPMI 5 mM glucose + 10% dialyzed FBS, 1.71 µM
[31] = RPMI 5 mM glucose + 10% dialyzed FBS, 5.12 µM
[32] = RPMI 5 mM glucose + 10% dialyzed FBS, 15.4 µM
[33] = RPMI 5 mM glucose + 10% dialyzed FBS, 46.1 µM

Row | SMILES | cell viability [1] [%] | cell viability [2] [%] | cell viability [3] [%] | cell viability [4] [%] | cell viability [5] [%] | cell viability [6] [%] | cell viability [7] [%] | cell viability [8] [%] | cell viability [9] [%] | cell viability [10] [%] | cell viability [11] [%] | cell viability [12] [%] | cell viability [13] [%] | cell viability [14] [%] | cell viability [15] [%] | cell viability [16] [%] | cell viability [17] [%] | cell viability [18] [%] | cell viability [19] [%] | cell viability [20] [%] | cell viability [21] [%] | cell viability [22] [%] | cell viability [23] [%] | cell viability [24] [%] | cell viability [25] [%] | cell viability [26] [%] | cell viability [27] [%] | cell viability [28] [%] | cell viability [29] [%] | cell viability [30] [%] | cell viability [31] [%] | cell viability [32] [%] | cell viability [33] [%]
1 | COc1cc2nccc(Oc3ccc(NC(=O)Nc4ccc(F)cc4F)c(F)c3)c2cc1OC | 103 | 86 | 63.8 | 74.4 | 50.7 | 32.3 | 41.6 | 42.2 | 34.9 | 36.4 | 20 | 118 | 115 | 87.7 | 88.9 | 71.9 | 59 | 55.9 | 51.6 | 56.4 | 53.6 | 13.3 | 72.7 | 89 | 51.1 | 62.2 | 41.6 | 37 | 34.1 | 36.4 | 33.4 | 33.3 | 12.6
2 | C[C@H]1CN(C[C@@H](C)O1)CC(=O)NC2=CC=C3SC4=C(CC3=C2)C=CC=C4\C5=C\C(=O)\C=C(/O5)N6CCOCC6 | 80.4 | 108 | 43 | 118 | 110 | 126 | 113 | 113 | 89.8 | 84.4 | 39.8 | 76.2 | 91.8 | 14.3 | 78.1 | 86.6 | 80.5 | 83.2 | 81.9 | 75.8 | 44.1 | 15 | 86.7 | 95.3 | 34.6 | 101 | 118 | 111 | 103 | 99.4 | 73.7 | 46.9 | 19.6
3 | CSC1=CC(=CC=C1)NC2=NC3=C(C=N2)/C=C(C(=O)N3C)/C4=C(Cl)C=CC=C4Cl | 86.5 | 90.7 | 97.7 | 77.3 | 86.4 | 89.7 | 97 | 99.4 | 88.9 | 77 | 55.2 | 120 | 110 | 110 | 53.5 | 105 | 97.4 | 126 | 120 | 112 | 91.4 | 81.3 | 96.1 | 89 | 91.9 | 80.1 | 96 | 78.3 | 103 | 84.9 | 84.3 | 69.4 | 52.4
4 | CN1C(=O)\C(=C/C(=C1/NC2=C(F)C=C(I)C=C2)C(=O)NOCCO)C | 92.4 | 107 | 106 | 91.8 | 91.7 | 78.7 | 67.8 | 67.5 | 77.2 | 70.6 | 72.9 | 97.1 | 102 | 93.9 | 99 | 76.9 | 72.7 | 82 | 86 | 84 | 70.8 | 65 | 109 | 91.8 | 98 | 78.3 | 77.7 | 60.4 | 72.3 | 68.1 | 63.2 | 59 | 67.8
5 | Fc1cc(-c2cccc3ncc(-c4cnn(C5CCNCC5)c4)nc23)cc(F)c1CN1CCOCC1 | – | – | – | – | – | – | – | – | – | – | – | 110 | 113 | 107 | 110 | 112 | 105 | 103 | 95.8 | 27.4 | 25.7 | 16 | – | – | – | – | – | – | – | – | – | – | –
6 | O=C(Cc1cccc(OC(F)(F)F)c1)Nc1ccc(CCCCc2nnc(NC(=O)Cc3ccccn3)s2)nn1 | 122 | 107 | 119 | 112 | 107 | 89 | 86.7 | 87.4 | 79.5 | 72 | 65.1 | – | – | – | – | – | – | – | – | – | – | – | 141 | 116 | 108 | 91.8 | 78.8 | 70.3 | 70.6 | 60.2 | 56.7 | 50.7 | 46
7 | CC(=O)N1CCN(c2ccc(OCc3nn(C)c(C)c3-c3cccc4c(CCCOc5cc(C)c(Cl)c(C)c5)c(C(=O)O)n(Cc5cccnc5)c34)cc2)CC1 | 78.5 | 91.7 | 106 | 75.1 | 111 | 118 | 117 | 105 | 99.3 | 97.4 | 2.86 | 97.6 | 84.3 | 97.8 | 77.5 | 97.3 | 104 | 117 | 100 | 82.5 | 54 | 1.85 | 96.3 | 101 | 106 | 81.2 | 111 | 112 | 110 | 121 | 94.6 | 77.5 | 1.96
8 | Cc1cc(Nc2ncc(Cl)c(Nc3ccccc3[S+](=O)([O-])C(C)C)n2)c(OC(C)C)cc1C1CCNCC1 | 115 | 114 | 119 | 123 | 120 | 109 | 96 | 88.1 | 69 | 48.3 | 5.59 | 112 | 114 | 103 | 118 | 119 | 101 | 94.2 | 101 | 65.3 | 50.5 | 5.71 | 125 | 121 | 104 | 146 | 142 | 121 | 110 | 100 | 80.9 | 52.2 | 6.92

Reference: the supplement of paper PMC11451515
